Experimental findings from patent US8691855B2, “Compounds, isomer thereof, or pharmaceutically acceptable salts thereof as vanilloid receptor antagonist and pharmaceutical compositions containing the same” (Amorepacific Corporation, priority 2008, dated 2014) are described below.

pIC50: −log10 of the molar value.

As usually defined, the pIC50 is the IC50 on a negative log10 scale, so that one unit is a factor of ten.

One experiment deals with T1, vanilloid receptor (Rattus norvegicus, UniProt O35433).
T1 construct: DRG nerve cells from the primary culture of 2 days were equilibrated; endogenous in cells; host or cells: primary culture of dorsal root ganglion neurons from neonatal SD rats
T1 sequence (O35433 whole entry): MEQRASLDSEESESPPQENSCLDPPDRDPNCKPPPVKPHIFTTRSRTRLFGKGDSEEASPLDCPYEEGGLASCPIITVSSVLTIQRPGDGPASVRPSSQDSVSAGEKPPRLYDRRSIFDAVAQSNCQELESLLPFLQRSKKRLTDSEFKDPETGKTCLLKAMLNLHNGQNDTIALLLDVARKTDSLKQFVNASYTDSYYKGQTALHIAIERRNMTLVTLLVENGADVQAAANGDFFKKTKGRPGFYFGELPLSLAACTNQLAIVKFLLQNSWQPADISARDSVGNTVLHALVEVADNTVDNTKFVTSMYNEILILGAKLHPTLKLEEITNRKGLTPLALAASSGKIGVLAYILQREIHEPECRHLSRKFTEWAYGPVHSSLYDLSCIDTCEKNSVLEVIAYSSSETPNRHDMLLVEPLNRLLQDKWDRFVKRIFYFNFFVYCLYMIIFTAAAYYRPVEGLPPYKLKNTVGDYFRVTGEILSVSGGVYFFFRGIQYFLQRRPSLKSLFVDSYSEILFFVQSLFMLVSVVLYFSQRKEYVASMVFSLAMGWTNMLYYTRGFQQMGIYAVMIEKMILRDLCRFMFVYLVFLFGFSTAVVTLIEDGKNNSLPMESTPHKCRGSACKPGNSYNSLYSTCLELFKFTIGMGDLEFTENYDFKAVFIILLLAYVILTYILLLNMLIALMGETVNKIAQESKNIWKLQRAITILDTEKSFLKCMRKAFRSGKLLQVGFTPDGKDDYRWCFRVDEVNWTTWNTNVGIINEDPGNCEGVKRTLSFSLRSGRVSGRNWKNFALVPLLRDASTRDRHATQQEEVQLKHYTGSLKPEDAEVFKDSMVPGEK
Kind of experiment: 45Ca influx test (antagonist calcium uptake test) in rat DRG neurons stimulated with capsaicin. In kind it is cell-based. The settings on record: neonatal SD rat DRG neurons; capsaicin 0.5 μM; 45Ca. Summed up: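 Neonatal SD rat DRG neurons, cultured 2 days with NGF 200 ng/ml, exposed to test compound plus 0.5 μM capsaicin and 45Ca (10 μCi/ml) in HEPES-buffered Ca/Mg-free HBSS, pH 7.4, 10 min at room temperature. Influx counted by scintillation; activity as percent inhibition of the 0.5 μM capsaicin maximal response.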

For another experiment, the system named is Male ICR mice. Kind of experiment: Analgesic activity test: mouse writhing test by inducing with phenyl-p-quinone. In kind it is in vivo. The settings on record: po, p.o., read-out: Analgesic effect (% Inhibition). As to the method:
2. Analgesic Activity Test: Mouse Writhing Test by Inducing with Phenyl-p-quinone Male ICR mice (mean body weight 25 g) were maintained in a controlled lighting environment (12 h on/12 h off) for experiment. Animals received an intraperitoneal injection of 0.3 ml of the chemical irritant phenyl-p-quinone (dissolved in saline containing 5% ethanol to be a close of 4.5 mg/kg) and 6 mins later, the number of abdominal constrictions was counted in the subsequent 6 mins period. Animals (10 animals/group) received 0.2 ml of test compounds solution in vehicle of ethanol/Tween 80/saline (Oct. 10, 1980) intraperitoneally 30 min before the injection of phenyl-p-quinone. In the case of oral administration, 0.2 ml of test compounds solution in vehicle of ethanol/Tween 80/saline (5/5/90) were administered 54 min prior to the 0.2 ml of 0.02% phenyl-p-quinone injection. A reduction in the number of writhes responding to the test drug compound relative to the number responding in saline control group was considered to be indicative of an analgesic effect. Analgesic effect was calculated by % inhibition equation (% inhibition=(C-T)/C×100), wherein C and T represent the number of writhes in control and compound-treated group, respectively.

`C[C@@H](NC(=O)c1coc(-c2cccc(C(F)(F)F)c2)n1)c1cc(F)c(NS(C)(=O)=O)c(F)c1` [Example 67, 2-(3-Trifluoromethyl-phenyl)-oxazole-4-carboxylic acid [1-(3,5-difluoro-4-methanesulfonylamino-phenyl)-ethyl]-amide]: the pIC50 at vanilloid receptor is 6.44. Besides, the inhibition in vivo at 3 mg/kg in the experiment with Male ICR mice stood at 43%.

With `C[C@@H](NC(=O)c1ccc(-c2cccc(C3CC3)c2)o1)c1cc(F)c(NS(C)(=O)=O)c(F)c1` [Example 102, 5-(3-Cyclopropyl-phenyl)-furan-2-carboxylic acid [1-(3,5-difluoro-4-methanesulfonylamino-phenyl)-ethyl]-amide], on vanilloid receptor, the pIC50 is 7.00. Also, the inhibition in vivo at 3 mg/kg in the experiment with Male ICR mice is 58%.

On to `CC(C)c1cccc(-c2nc(C(=O)N[C@H](C)c3cc(F)c(NS(C)(=O)=O)c(F)c3)co2)c1` [Example 69, 2-(3-Isopropyl-phenyl)-oxazole-4-carboxylic acid [1-(3,5-difluoro-4-methanesulfonylamino-phenyl)-ethyl]-amide], for which the pIC50 at vanilloid receptor was 6.80. Besides, the inhibition in vivo at 0.3 mg/kg in the experiment with Male ICR mice (dose 0.3 mg/kg) stood at 35%.

With `CS(=O)(=O)Nc1ccc(CNC(=O)c2ccc(-c3cccc(C(F)(F)F)c3)o2)cc1F` [Example 118, 5-(3-Trifluoromethyl-phenyl)-furan-2-carboxylic acid 3-fluoro-4-methanesulfonylamino-benzylamide], the pIC50 on vanilloid receptor was 6.43. For the same compound, the inhibition in vivo at 3 mg/kg in the experiment with Male ICR mice was 42%.

`C[C@@H](NC(=O)c1ccc(-c2cccc(C(F)(F)F)c2)o1)c1cc(F)c(NS(C)(=O)=O)c(F)c1` [Example 120, (R)-5-(3-Trifluoromethyl-phenyl)-furan-2-carboxylic acid [1-(3,5-difluoro-4-methanesulfonylamino-phenyl)-ethyl]-amide]: the pIC50 at vanilloid receptor was 7.19. Moreover, the inhibition in vivo at 3 mg/kg in the experiment on Male ICR mice turned out to be 60%.

Take `C[C@@H](NC(=O)c1coc(Oc2cccc(C(C)(C)C)c2)n1)c1cc(F)c(NS(C)(=O)=O)c(F)c1` [Example 1, 2-(3-tert-Butyl-phenoxy)-oxazole-4-carboxylic acid [1-(3,5-difluoro-4-methanesulfonylamino-phenyl)-ethyl]-amide]: the pIC50 on vanilloid receptor is 6.82. The inhibition in vivo at 3 mg/kg with Male ICR mice came to 21%.

In the case of `C[C@@H](NC(=O)c1ccc(-c2ccccc2C(F)(F)F)o1)c1cc(F)c(NS(C)(=O)=O)c(F)c1` [Example 119, 5-(2-Trifluoromethyl-phenyl)-furan-2-carboxylic acid [1-(3,5-difluoro-4-methanesulfonylamino-phenyl)-ethyl]-amide], the pIC50 at vanilloid receptor is 6.89. In the experiment on Male ICR mice, the inhibition in vivo at 3 mg/kg is 38%.

On to `C[C@@H](NC(=O)c1coc(-c2cc(C(F)(F)F)cc(C(F)(F)F)c2)n1)c1cc(F)c(NS(C)(=O)=O)c(F)c1` [Example 87, 2-(3,5-Bis-trifluoromethyl-phenyl)-oxazole-4-carboxylic acid [1-(3,5-difluoro-4-methanesulfonylamino-phenyl)-ethyl]-amide], for which the pIC50 on vanilloid receptor is 6.85. In addition, the inhibition in vivo at 3 mg/kg in the experiment with Male ICR mice came to 59%.

As for `C[C@@H](NC(=O)c1coc(-c2ccc(Cl)c(C(F)(F)F)c2)n1)c1cc(F)c(NS(C)(=O)=O)c(F)c1` [Example 91, 2-(4-Chloro-3-trifluoromethyl-phenyl)-oxazole-4-carboxylic acid [1-(3,5-difluoro-4-methanesulfonylamino-phenyl)-ethyl]-amide], the pIC50 on vanilloid receptor was 6.68. Also, the inhibition in vivo at 3 mg/kg with Male ICR mice was 25%.

For `C[C@@H](NC(=O)c1coc(-c2cccc(C3CC3)c2)n1)c1cc(F)c(NS(C)(=O)=O)c(F)c1` [Example 100, 2-(3-Cyclopropyl-phenyl)-oxazole-4-carboxylic acid [1-(3,5-difluoro-4-methanesulfonylamino-phenyl)-ethyl]-amide], on vanilloid receptor, the pIC50 was 7.32. Besides, the inhibition in vivo at 3 mg/kg with Male ICR mice turned out to be 35%.
